{
  "source": "paper PMC12951562",
  "about": "“SH2scan: Mapping SH2 Domain-Ligand Binding Selectivity for Inhibitors and Degraders” (Journal of Medicinal Chemistry, 2026)",
  "assay_in_all_cases": "biochemical",
  "assay_type_in_all_cases": "binding",
  "key": {"[1]": {"target": "T1, MATK (Homo sapiens, UniProt P42679)", "T1 construct": "the DNA-tagged SH2 domain concentrations used in this study were <0.1 nM; made in house; host or cells: HEK293 (transient transfection, unpurified extract)", "T1 sequence (P42679 122-211 limits assumed)": "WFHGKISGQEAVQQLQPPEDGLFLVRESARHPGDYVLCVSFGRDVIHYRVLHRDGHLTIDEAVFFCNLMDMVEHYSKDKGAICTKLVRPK"}, "[2]": {"target": "T2, RASA1(SH2dom.N-term.) (Homo sapiens, UniProt P20936)", "T2 construct": "SH2dom.N-term. denotes SH2 domain closest to N-terminus of protein; made in house; host or cells: HEK293 (transient transfection), unpurified extract", "T2 sequence (P20936 181-272 limits assumed)": "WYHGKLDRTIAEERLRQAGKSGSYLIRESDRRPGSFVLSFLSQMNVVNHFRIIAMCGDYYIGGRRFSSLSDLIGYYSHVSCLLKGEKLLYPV"}, "[3]": {"target": "T3, HCK (Homo sapiens, UniProt P08631)", "T3 construct": "the DNA-tagged SH2 domain concentrations used in this study were <0.1 nM; made in house; host or cells: HEK293 (transient transfection, unpurified extract)", "T3 sequence (P08631 144-241 limits assumed)": "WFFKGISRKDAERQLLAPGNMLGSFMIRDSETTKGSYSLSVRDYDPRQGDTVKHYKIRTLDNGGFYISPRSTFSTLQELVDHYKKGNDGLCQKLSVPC"}, "[4]": {"target": "T4, LCK (Homo sapiens, UniProt P06239)", "T4 construct": "the DNA-tagged SH2 domain concentrations used in this study were <0.1 nM; made in house; host or cells: HEK293 (transient transfection, unpurified extract)", "T4 sequence (P06239 127-224 limits assumed)": "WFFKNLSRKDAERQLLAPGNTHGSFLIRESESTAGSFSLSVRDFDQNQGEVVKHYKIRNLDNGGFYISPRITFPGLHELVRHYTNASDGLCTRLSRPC"}, "[5]": {"target": "T5, SRC (Homo sapiens, UniProt P12931)", "T5 construct": "made in house; host or cells: HEK293 (transient transfection), unpurified extract", "T5 sequence (P12931 whole entry)": "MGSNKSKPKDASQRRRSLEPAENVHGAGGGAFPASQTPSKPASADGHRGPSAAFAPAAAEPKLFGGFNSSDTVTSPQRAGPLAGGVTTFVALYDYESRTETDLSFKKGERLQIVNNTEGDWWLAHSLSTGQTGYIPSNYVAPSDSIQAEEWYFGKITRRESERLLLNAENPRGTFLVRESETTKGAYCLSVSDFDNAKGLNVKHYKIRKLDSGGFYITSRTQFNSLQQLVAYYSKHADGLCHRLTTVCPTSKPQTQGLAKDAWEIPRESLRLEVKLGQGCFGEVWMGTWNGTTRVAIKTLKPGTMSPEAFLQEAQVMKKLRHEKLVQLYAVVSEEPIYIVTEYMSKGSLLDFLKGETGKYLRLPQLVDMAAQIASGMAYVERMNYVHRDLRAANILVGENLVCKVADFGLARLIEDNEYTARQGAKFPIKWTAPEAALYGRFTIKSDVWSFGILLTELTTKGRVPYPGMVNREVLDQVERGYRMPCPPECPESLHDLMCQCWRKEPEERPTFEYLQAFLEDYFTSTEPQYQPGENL"}, "[6]": {"target": "T6, SH2D1B (Homo sapiens, UniProt O14796)", "T6 construct": "made in house; host or cells: HEK293 (transient transfection), unpurified extract", "T6 sequence (O14796 1-132)": "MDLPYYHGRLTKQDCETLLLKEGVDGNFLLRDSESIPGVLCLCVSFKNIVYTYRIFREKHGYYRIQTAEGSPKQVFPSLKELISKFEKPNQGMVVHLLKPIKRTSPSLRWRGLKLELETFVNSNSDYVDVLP"}, "[7]": {"target": "T7, SOCS2 (Homo sapiens, UniProt O14508)", "T7 construct": "made in house; host or cells: HEK293 (transient transfection), unpurified extract", "T7 sequence (O14508 1-198)": "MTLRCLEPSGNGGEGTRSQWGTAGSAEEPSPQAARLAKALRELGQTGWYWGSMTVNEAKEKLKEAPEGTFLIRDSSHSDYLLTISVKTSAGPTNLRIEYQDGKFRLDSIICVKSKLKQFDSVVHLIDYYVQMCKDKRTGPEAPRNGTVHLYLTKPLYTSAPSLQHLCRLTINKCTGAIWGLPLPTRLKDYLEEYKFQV"}, "[8]": {"target": "T8, SOCS6 (Homo sapiens, UniProt O14544)", "T8 construct": "made in house; host or cells: HEK293 (transient transfection), unpurified extract", "T8 sequence (O14544 1-535)": "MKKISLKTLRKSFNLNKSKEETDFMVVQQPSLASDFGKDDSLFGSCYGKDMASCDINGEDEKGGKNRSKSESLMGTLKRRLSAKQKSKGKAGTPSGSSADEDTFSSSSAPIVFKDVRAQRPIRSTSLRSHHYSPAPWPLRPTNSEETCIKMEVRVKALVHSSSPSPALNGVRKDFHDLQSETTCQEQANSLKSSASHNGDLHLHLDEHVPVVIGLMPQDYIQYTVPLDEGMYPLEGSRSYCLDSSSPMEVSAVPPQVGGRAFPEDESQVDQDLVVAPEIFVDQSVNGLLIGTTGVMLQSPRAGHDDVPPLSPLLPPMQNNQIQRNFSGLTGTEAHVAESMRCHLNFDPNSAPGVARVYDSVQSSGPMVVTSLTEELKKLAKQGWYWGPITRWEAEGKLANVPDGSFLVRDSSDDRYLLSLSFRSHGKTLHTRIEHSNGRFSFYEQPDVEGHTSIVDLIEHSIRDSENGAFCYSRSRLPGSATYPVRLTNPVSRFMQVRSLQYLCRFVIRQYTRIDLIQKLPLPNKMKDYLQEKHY"}, "[9]": {"target": "T9, SOCS7 (Homo sapiens, UniProt O14512)", "T9 construct": "made in house; host or cells: HEK293 (transient transfection), unpurified extract", "T9 sequence (O14512 1-581)": "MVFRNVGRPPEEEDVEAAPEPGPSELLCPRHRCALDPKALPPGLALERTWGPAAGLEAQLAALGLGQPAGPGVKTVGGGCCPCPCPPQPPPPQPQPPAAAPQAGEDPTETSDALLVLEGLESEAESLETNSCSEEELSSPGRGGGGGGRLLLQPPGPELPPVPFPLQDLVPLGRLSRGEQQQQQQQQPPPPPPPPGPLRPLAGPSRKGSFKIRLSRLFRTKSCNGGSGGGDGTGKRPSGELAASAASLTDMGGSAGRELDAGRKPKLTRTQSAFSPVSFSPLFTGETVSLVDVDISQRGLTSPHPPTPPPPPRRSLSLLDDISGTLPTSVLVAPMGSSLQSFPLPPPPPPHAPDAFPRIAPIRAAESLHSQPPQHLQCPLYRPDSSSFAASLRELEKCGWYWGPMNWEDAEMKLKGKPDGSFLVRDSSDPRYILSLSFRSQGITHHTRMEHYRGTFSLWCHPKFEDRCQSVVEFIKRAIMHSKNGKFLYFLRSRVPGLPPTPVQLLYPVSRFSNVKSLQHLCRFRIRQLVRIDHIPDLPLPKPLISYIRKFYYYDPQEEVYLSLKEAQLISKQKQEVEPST"}, "[10]": {"target": "T10, FGR (Homo sapiens, UniProt P09769)", "T10 construct": "the DNA-tagged SH2 domain concentrations used in this study were <0.1 nM; made in house; host or cells: HEK293 (transient transfection; unpurified extract)", "T10 sequence (P09769 144-241 limits assumed)": "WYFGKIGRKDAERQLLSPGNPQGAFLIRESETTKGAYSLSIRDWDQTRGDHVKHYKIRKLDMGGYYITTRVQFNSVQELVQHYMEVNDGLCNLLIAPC"}, "[11]": {"target": "T11, LYN (Homo sapiens, UniProt P07948)", "T11 construct": "the DNA-tagged SH2 domain concentrations used in this study were <0.1 nM; made in house; host or cells: HEK293 (transient transfection, unpurified extract)", "T11 sequence (P07948 129-226 limits assumed)": "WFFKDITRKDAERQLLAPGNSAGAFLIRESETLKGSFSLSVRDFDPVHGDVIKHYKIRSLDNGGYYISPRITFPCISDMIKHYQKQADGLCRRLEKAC"}, "[12]": {"target": "T12, SH2B (SH2B1) (Homo sapiens, UniProt Q9NRF2)", "T12 construct": "made in house; host or cells: HEK293 (transient transfection), unpurified extract"}, "[13]": {"target": "T13, SHB (Homo sapiens, UniProt Q15464)", "T13 construct": "made in house; host or cells: HEK293 (transient transfection), unpurified extract", "T13 sequence (Q15464 whole entry)": "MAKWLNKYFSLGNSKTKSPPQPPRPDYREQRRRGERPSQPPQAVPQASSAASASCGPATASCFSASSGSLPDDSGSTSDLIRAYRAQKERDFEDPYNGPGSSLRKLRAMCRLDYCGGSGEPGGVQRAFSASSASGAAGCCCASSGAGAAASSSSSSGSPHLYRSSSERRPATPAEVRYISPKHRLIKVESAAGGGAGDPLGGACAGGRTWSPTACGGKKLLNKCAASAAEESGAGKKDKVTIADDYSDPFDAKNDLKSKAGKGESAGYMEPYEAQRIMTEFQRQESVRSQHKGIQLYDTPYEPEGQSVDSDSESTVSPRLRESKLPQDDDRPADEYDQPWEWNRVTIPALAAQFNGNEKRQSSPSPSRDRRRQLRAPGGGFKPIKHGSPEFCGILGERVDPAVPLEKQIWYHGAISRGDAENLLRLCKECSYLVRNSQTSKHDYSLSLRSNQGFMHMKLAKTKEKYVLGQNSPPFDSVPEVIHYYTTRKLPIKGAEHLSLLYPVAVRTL"}},
  "note": "Non-standard residues stand in square brackets, D forms with d. Residues, ends and D or L forms follow the SMILES beside them. pY = N[C@@H](Cc1ccc(OP(=O)(O)O)cc1)C(=O)O",
  "data": [
    {"smiles": "CC[C@H](C)[C@H](NC(=O)[C@H](CS)NC(=O)[C@H](CCCNC(=N)N)NC(C)=O)C(=O)N[C@@H](CC(N)=O)C(=O)N[C@@H](Cc1ccc(OP(=O)(O)O)cc1)C(=O)N[C@H](C(=O)N[C@@H](Cc1ccccc1)C(=O)N[C@@H](Cc1ccccc1)C(=O)N1CCC[C@H]1C(=O)N[C@@H](CO)C(=O)N[C@@H](CC(C)C)C(=O)N[C@@H](CCCCN)C(=O)N1CCC[C@H]1C(=O)N[C@@H](CO)C(=O)N[C@@H](CO)C(N)=O)C(C)C", "values": [
      {"measurement": "Kd", "setting": "[1]", "result": "0.555 ± 0.128", "unit": "µM"}
    ]},
    {"smiles": "CC[C@H](C)[C@H](NC(=O)[C@H](CC(N)=O)NC(=O)[C@H](CCC(=O)O)NC(=O)[C@H](CCC(=O)O)NC(=O)[C@H](CCC(=O)O)NC(C)=O)C(=O)N[C@@H](Cc1ccc(OP(=O)(O)O)cc1)C(=O)N[C@@H](CO)C(=O)N[C@H](C(=O)N1CCC[C@H]1C(=O)N[C@@H](Cc1c[nH]cn1)C(=O)N[C@@H](CC(=O)O)C(=O)N[C@@H](CO)C(=O)N[C@H](C(N)=O)[C@@H](C)O)C(C)C", "note": "(Ac-EEENI[pY]SVPHDST-NH2)", "values": [
      {"measurement": "Kd", "setting": "[2]", "result": "0.472 ± 0.309", "unit": "µM"}
    ]},
    {"smiles": "CC[C@H](C)[C@H](NC(=O)[C@@H]1CCCN1C(=O)[C@@H](NC(=O)[C@H](CCC(=O)O)NC(=O)[C@H](CCC(=O)O)NC(=O)[C@H](Cc1ccc(OP(=O)(O)O)cc1)NC(=O)[C@H](CCC(N)=O)NC(=O)[C@@H]1CCCN1C(=O)[C@H](CCC(=O)O)NC(C)=O)[C@@H](C)CC)C(=O)N[C@@H](Cc1ccc(O)cc1)C(=O)N[C@@H](CC(C)C)C(N)=O", "note": "(Ac-EPQ[pY]EEIPIYL-NH2)", "values": [
      {"measurement": "Kd", "setting": "[3]", "result": "1.44 ± 0.475", "unit": "µM"},
      {"measurement": "Kd", "setting": "[4]", "result": "0.097 ± 0.0516", "unit": "µM"},
      {"measurement": "Kd", "setting": "[5]", "result": "2.71 ± 1.95", "unit": "µM"}
    ]},
    {"smiles": "CC[C@H](C)[C@H](NC(=O)[C@@H](NC(=O)[C@H](CC(C)C)NC(=O)[C@H](CO)NC(=O)[C@H](CCCCN)NC(C)=O)[C@@H](C)O)C(=O)N[C@@H](Cc1ccc(OP(=O)(O)O)cc1)C(=O)N[C@@H](C)C(=O)N[C@@H](CCC(N)=O)C(=O)N[C@H](C(=O)N[C@@H](CCC(N)=O)C(=O)N[C@@H](CCCCN)C(N)=O)C(C)C", "note": "[Ac-KSLTIpYAQVQK-NH2] (Ac-KSLTI[pY]AQVQK-NH2)", "values": [
      {"measurement": "Kd", "setting": "[6]", "result": "0.00014 ± 3e-05", "unit": "µM"}
    ]},
    {"smiles": "CC[C@H](C)[C@H](NC(=O)[C@H](Cc1ccc(O)cc1)NC(=O)[C@@H](NC(=O)[C@H](Cc1ccc(OP(=O)(O)O)cc1)NC(=O)[C@H](CC(N)=O)NC(=O)[C@H](CC(N)=O)NC(=O)CNC(=O)[C@H](CC(N)=O)NC(C)=O)C(C)C)C(=O)N[C@@H](CC(=O)O)C(=O)N1CCC[C@H]1C(=O)N[C@H](C(N)=O)[C@@H](C)O", "note": "[Ac-NGNNpYVYIDPT-NH2]", "values": [
      {"measurement": "Kd", "setting": "[7]", "result": "4.2 ± 0.739", "unit": "µM"},
      {"measurement": "Kd", "setting": "[8]", "result": "0.0206 ± 0.00433", "unit": "µM"},
      {"measurement": "Kd", "setting": "[9]", "result": "11.7 ± 0.822", "unit": "µM"}
    ]},
    {"smiles": "CC(=O)N1CCC[C@H]1C(=O)N[C@@H](CCC(=O)O)C(=O)NCC(=O)N[C@@H](CC(=O)O)C(=O)N[C@@H](Cc1ccc(OP(=O)(O)O)cc1)C(=O)N[C@@H](CCC(=O)O)C(=O)N[C@@H](CCC(=O)O)C(=O)N[C@H](C(=O)N[C@@H](CC(C)C)C(=O)N[C@@H](CCC(=O)O)C(N)=O)C(C)C", "note": "[Ac-PEGDpYEEVLE-NH2] (Ac-PEGD[pY]EEVLE-NH2)", "values": [
      {"measurement": "Kd", "setting": "[10]", "result": "1.82 ± 0.51", "unit": "µM"},
      {"measurement": "Kd", "setting": "[11]", "result": "0.765 ± 0.141", "unit": "µM"}
    ]},
    {"smiles": "CC[C@H](C)[C@H](NC(=O)[C@H](CC(N)=O)NC(=O)[C@@H](NC(=O)[C@H](Cc1ccc(OP(=O)(O)O)cc1)NC(=O)[C@H](CCC(=O)O)NC(=O)CNC(=O)[C@@H]1CCCN1C(=O)[C@H](CO)NC(C)=O)C(C)C)C(=O)N[C@@H](CCC(=O)O)C(=O)N[C@@H](Cc1ccccc1)C(=O)NCC(N)=O", "note": "[Ac-SPGEpYVNIEFG-NH2]", "values": [
      {"measurement": "Kd", "setting": "[12]", "result": "4.46 ± 0.615", "unit": "µM"},
      {"measurement": "Kd", "setting": "[13]", "result": "6.03 ± 1.09", "unit": "µM"}
    ]}
  ]
}
